As a reminder, the GI50 is the concentration at which growth is held to half of that of the control. What is called Kd is the concentration at which binding is half-saturated.

Active and inactive are the calls of the source. No cut-off for these calls is given here.

From ChEMBL document CHEMBL4715871, “4-Acyl Pyrroles as Dual BET-BRD7/9 Bromodomain Inhibitors Address BETi Insensitive Human Cancer Cell Lines” (J Med Chem, 2020) come the findings set out here.

In assay [1] the test system is SK-MEL-5. The assay can be described thus: Growth inhibition of human SK-MEL-5 cells after 72 hrs by CellTiter 96S AQeous non-radioactive cell proliferation assay. It counts as functional.
In a further assay the test system is HL-60. The assay can be described thus: Growth inhibition of human HL60 cells after 72 hrs by CellTiter 96S AQeous non-radioactive cell proliferation assay. In kind it is functional.
A further assay relates to MCF7. As to the kind of experiment: Growth inhibition of human MCF7 cells after 72 hrs by CellTiter 96S AQeous non-radioactive cell proliferation assay. It counts as functional.
In assay [2] the target is T1, Bromodomain-containing protein 4 (Homo sapiens, UniProt O60885). As to the kind of experiment: Binding affinity to human BRD4 BD1 (N44 to E168 aa residues) by bromoKdELECT Discover assay.
Assay [3] concerns the target T2, Bromodomain-containing protein 9 (Homo sapiens, UniProt Q9H8M2).
T2 sequence (Q9H8M2 whole entry): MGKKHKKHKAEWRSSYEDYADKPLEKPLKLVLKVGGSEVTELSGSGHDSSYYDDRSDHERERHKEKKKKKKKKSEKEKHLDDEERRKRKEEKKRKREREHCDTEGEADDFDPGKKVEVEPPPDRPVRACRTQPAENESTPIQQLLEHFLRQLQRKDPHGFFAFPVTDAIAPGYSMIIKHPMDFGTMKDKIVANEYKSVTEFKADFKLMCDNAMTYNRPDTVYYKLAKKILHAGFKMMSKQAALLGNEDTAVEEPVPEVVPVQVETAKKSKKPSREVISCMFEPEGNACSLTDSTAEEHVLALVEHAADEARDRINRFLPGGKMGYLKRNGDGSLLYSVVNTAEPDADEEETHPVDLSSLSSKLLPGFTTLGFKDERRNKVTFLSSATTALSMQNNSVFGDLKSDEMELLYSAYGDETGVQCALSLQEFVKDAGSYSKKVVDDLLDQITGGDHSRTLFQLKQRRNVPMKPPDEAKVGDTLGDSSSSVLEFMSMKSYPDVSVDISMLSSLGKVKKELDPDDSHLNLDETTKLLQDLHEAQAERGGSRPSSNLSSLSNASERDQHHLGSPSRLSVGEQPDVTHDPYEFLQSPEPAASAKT
The assay can be described thus: Binding affinity to human partial length BRD9 (R130 to V259 residues) by bromoKdELECT Discover assay.

The target of assay [4] is T1, Bromodomain-containing protein 4. The assay can be described thus: Binding affinity to BRD4 BD1 (unknown origin) at 25 degree C by ITC analysis. On the technique in general: ITC needs no label: the signal is the heat of the interaction.
For assay [5] the target is unchanged. The assay can be described thus: Binding affinity to BRD4 BD1 (unknown origin) at 37 degree C by ITC analysis.
Assay [6] shares this target. The assay can be described thus: Binding affinity to BRD4 BD1 (unknown origin) at 15 degree C by ITC analysis.
Assay [7] is described as follows: Cytotoxicity against human A498 cells after 72 hrs by CellTiter 96S AQeous non-radioactive cell proliferation assay. It counts as functional. Particulars: read-out: LC50 (the source's name).
The test system of another assay is UACC-62. The assay can be described thus: Growth inhibition of human UACC-62 cells after 72 hrs by CellTiter 96S AQeous non-radioactive cell proliferation assay. In kind it is functional.
For a further assay, the system named is LOX IMVI. The assay can be described thus: Cytotoxicity against human LOX-IMVI cells after 72 hrs by CellTiter 96S AQeous non-radioactive cell proliferation assay. In kind it is functional. To be noted: read-out: LC50 (the source's name).
The test system of the next assay is NCI-H522. The assay can be described thus: Growth inhibition of human NCI-H522 cells after 72 hrs by CellTiter 96S AQeous non-radioactive cell proliferation assay. It counts as functional.
For a further assay, the system named is SNB-75. The assay can be described thus: Growth inhibition of human SNB-75 cells after 72 hrs by CellTiter 96S AQeous non-radioactive cell proliferation assay. It counts as functional.
The test system of assay [8] is SK-MEL-5. The assay can be described thus: Cytotoxicity against human SK-MEL-5 cells after 72 hrs by CellTiter 96S AQeous non-radioactive cell proliferation assay. In kind it is functional. To be noted: read-out: LC50 (the source's name).
The species named for assay [9] is Homo sapiens. As to the kind of experiment: Selectivity index, ratio of Kd for BRD9 (unknown origin) to BRD4 BD1 (unknown origin) by bromoKdELECT Discover assay.
For assay [10], the species on record is Homo sapiens. The assay can be described thus: Selectivity index, ratio of Kd for BRD7 (unknown origin) to BRD4 BD1 (unknown origin) by bromoKdELECT Discover assay.
The species named for assay [11] is Homo sapiens. The assay can be described thus: Selectivity index, ratio of Kd for BRPF1B (unknown origin) to BRD4 BD1 (unknown origin) by bromoKdELECT Discover assay.
The target in assay [12] is T1, Bromodomain-containing protein 4. As to the kind of experiment: Binding affinity to human BRD4 BD1 (N44 to E168 aa residues) at 10 uM by bromoKdELECT Discover assay.

With `CCc1c(C(=O)NCc2c(O)ccc3cccc(O)c23)[nH]c(C)c1C(C)=O`, the GI50 in the assay with SK-MEL-5 [1] (Homo sapiens, SK-MEL-5) stood at 4.2 µM; with HL-60 (Homo sapiens, HL-60), 1.3 µM; with MCF7 (Homo sapiens, MCF7), 4.2 µM. In addition, the Kd in assay [2] is more than 4 µM; in assay [3] (read-out: Kd), 2.9 µM.
As for `COc1ccc(S(=O)(=O)N2CCCCCC2)cc1NC(=O)c1[nH]c(C)c2c1CCCCC2=O`, the GI50 in the assay with SK-MEL-5 [1] (Homo sapiens, SK-MEL-5) was 6.85 µM; with HL-60 (Homo sapiens, HL-60), 0.565 µM; with MCF7 (Homo sapiens, MCF7) it was 3 µM. The same molecule displayed a Kd in [4] of 0.18 µM.
With `CC(=O)c1cc(-c2cc(C(=O)NC3CC3)ccc2C)c2ncccn12`, the GI50 in the assay with SK-MEL-5 [1] (Homo sapiens, SK-MEL-5) was determined as 2.77 µM; in the assay on HL-60 (Homo sapiens, HL-60), 1.33 µM; in the assay on MCF7 (Homo sapiens, MCF7), 4.49 µM. Besides, the Kd entry in [3] was “Not Active”.
For the molecule `CCc1c(C(=O)Nc2cc(S(=O)(=O)N(CC)CC)ccc2O)[nH]c(C)c1C(C)=O`, in the assay on HL-60 (Homo sapiens, HL-60), the GI50 was 17 µM.
As to `COc1ccc(S(=O)(=O)N2CCN(C)CC2)cc1NC(=O)c1[nH]c(C)c2c1CCCCC2=O`, the GI50 in the assay on SK-MEL-5 [1] (Homo sapiens, SK-MEL-5) is more than 20 µM; with HL-60 (Homo sapiens, HL-60), 2.08 µM; in the assay with MCF7 (Homo sapiens, MCF7) it was more than 25 µM. In addition, the affinity in assay [4], expressed as Kd, was 0.42 µM.
In the case of `Cc1cc(=O)n(C)c2cc(N3C(=O)CC[C@H](NS(=O)(=O)CC(C)C)[C@H]3c3ccc(Cl)cc3)ccc12`, the GI50 with HL-60 (Homo sapiens, HL-60) was 5.03 µM.
Take `Cc1sc2c(c1C)C(c1ccc(Cl)cc1)=N[C@@H](CC(=O)OC(C)(C)C)c1nnc(C)n1-2`: the GI50 with SK-MEL-5 [1] was more than 40 µM; with HL-60, 0.021 µM; in the assay on MCF7 it was more than 50 µM.
With `COc1ccc(S(=O)(=O)N2CC3(COC3)C2)cc1NC(=O)c1[nH]c(C)c2c1CCCCC2=O`, the GI50 came to 20.8 µM in the assay with SK-MEL-5 [1] (Homo sapiens, SK-MEL-5); 0.821 µM in the assay on HL-60 (Homo sapiens, HL-60); 5.76 µM with MCF7 (Homo sapiens, MCF7). In [4], this molecule showed a Kd of 0.26 µM.
With `CCN(CC)S(=O)(=O)c1ccc(O)c(NC(=O)c2[nH]c(C)c3c2CCCCC3=O)c1`, the GI50 in the assay with SK-MEL-5 [1] (Homo sapiens, SK-MEL-5) was more than 80 µM; in the assay on HL-60 (Homo sapiens, HL-60) it was more than 40 µM; in the assay on MCF7 (Homo sapiens, MCF7), more than 40 µM. In addition, the Kd in [5] was 0.17 µM; in assay [6] it was less than 0.01 µM; in assay [4], 0.07 µM.
With `CCC(=O)N1CCOc2c(cc(-c3ccc(OC)c(OC)c3)cc2OC[C@H]2CCCN(C)C2)C1`, the GI50 is more than 50 µM with SK-MEL-5 [1] (Homo sapiens, SK-MEL-5); more than 50 µM in the assay with HL-60 (Homo sapiens, HL-60); more than 50 µM in the assay with MCF7 (Homo sapiens, MCF7). In assay [3], the Kd entry is “Not Active”.
For the molecule `CCN(CC)S(=O)(=O)c1ccc(OC)c(NC(=O)c2[nH]c(C)c3c2CCCCC3=O)c1`, the GI50 was determined as 16.3 µM in the assay with SK-MEL-5 [1] (Homo sapiens, SK-MEL-5); 1.36 µM in the assay with HL-60 (Homo sapiens, HL-60); 6.84 µM with MCF7 (Homo sapiens, MCF7). Besides, in [4], the Kd turned out to be 0.14 µM.
For the molecule `COc1ccc(S(=O)(=O)N2CCCCC2)cc1NC(=O)c1[nH]c(C)c2c1CCCCC2=O`, the GI50 came out at 6.79 µM with SK-MEL-5 [1] (Homo sapiens, SK-MEL-5); 0.355 µM in the assay with UACC-62; 0.491 µM in the assay on HL-60 (Homo sapiens, HL-60); 4.06 µM with MCF7 (Homo sapiens, MCF7); 0.372 µM in the assay on NCI-H522; 0.141 µM in the assay on SNB-75. For the same molecule, the CC50 in [7] stood at 19.7 µM; in the assay with LOX IMVI, 8.17 µM; with SK-MEL-5 [8] it was 12.2 µM. For the same molecule, the Kd in [4] worked out at 0.05 µM.
`COc1ccc(S(=O)(=O)N2CCOCC2)cc1NC(=O)c1[nH]c(C)c2c1CCCCC2=O`: the GI50 worked out at 6.8 µM in the assay with SK-MEL-5 [1] (Homo sapiens, SK-MEL-5); 0.17 µM in the assay on HL-60 (Homo sapiens, HL-60); 7.67 µM in the assay on MCF7 (Homo sapiens, MCF7). In addition, the figures for the Ratio in the assay filed under Homo sapiens [9], in the assay listed under Homo sapiens [10] and in the assay listed under Homo sapiens [11] were 1.1, 1.4 and 8.7, respectively. In addition, the Kd in [4] was determined as 0.08 µM.
In the case of `COc1ccc(S(=O)(=O)N2CCCCC2)cc1NC(=O)c1c2c(c(C)n1C)C(=O)CCCC2`, the GI50 in the assay with SK-MEL-5 [1] (Homo sapiens, SK-MEL-5) was more than 10 µM; in the assay with HL-60 (Homo sapiens, HL-60), more than 10 µM; with MCF7 (Homo sapiens, MCF7), more than 10 µM. In addition, in assay [12], the outcome was inactive.
